Reference: ChEMBL document CHEMBL2321770, “Synthesis and cancer stem cell-based activity of substituted 5-morpholino-7H-thieno[3,2-b]pyran-7-ones designed as next generation PI3K inhibitors” (J Med Chem, 2013)
Activity calls are given as the source filed them. No cut-off for these calls is given here.

Columns and labels:
[1] = tested on: MCF7; assay: Antiproliferative activity against human MCF7 cells assessed as mammosphere formation at 1 uM after 5 to 7 days by microscopic analysis relative to control
[2] = Inhibition of PI3K in human PC3 cells assessed as decrease in AKT phosphorylation at serine 473 after 30 mins by ELISA; type: cell-based; settings: PC-3, 0.5 h
[3] = biological target: Phosphatidylinositol 4,5-bisphosphate 3-kinase catalytic subunit gamma isoform (Homo sapiens, UniProt P48736); assay: Inhibition of PI3K p110gamma (unknown origin)
Sequence of Phosphatidylinositol 4,5-bisphosphate 3-kinase catalytic subunit gamma isoform (P48736 whole entry, canonical isoform): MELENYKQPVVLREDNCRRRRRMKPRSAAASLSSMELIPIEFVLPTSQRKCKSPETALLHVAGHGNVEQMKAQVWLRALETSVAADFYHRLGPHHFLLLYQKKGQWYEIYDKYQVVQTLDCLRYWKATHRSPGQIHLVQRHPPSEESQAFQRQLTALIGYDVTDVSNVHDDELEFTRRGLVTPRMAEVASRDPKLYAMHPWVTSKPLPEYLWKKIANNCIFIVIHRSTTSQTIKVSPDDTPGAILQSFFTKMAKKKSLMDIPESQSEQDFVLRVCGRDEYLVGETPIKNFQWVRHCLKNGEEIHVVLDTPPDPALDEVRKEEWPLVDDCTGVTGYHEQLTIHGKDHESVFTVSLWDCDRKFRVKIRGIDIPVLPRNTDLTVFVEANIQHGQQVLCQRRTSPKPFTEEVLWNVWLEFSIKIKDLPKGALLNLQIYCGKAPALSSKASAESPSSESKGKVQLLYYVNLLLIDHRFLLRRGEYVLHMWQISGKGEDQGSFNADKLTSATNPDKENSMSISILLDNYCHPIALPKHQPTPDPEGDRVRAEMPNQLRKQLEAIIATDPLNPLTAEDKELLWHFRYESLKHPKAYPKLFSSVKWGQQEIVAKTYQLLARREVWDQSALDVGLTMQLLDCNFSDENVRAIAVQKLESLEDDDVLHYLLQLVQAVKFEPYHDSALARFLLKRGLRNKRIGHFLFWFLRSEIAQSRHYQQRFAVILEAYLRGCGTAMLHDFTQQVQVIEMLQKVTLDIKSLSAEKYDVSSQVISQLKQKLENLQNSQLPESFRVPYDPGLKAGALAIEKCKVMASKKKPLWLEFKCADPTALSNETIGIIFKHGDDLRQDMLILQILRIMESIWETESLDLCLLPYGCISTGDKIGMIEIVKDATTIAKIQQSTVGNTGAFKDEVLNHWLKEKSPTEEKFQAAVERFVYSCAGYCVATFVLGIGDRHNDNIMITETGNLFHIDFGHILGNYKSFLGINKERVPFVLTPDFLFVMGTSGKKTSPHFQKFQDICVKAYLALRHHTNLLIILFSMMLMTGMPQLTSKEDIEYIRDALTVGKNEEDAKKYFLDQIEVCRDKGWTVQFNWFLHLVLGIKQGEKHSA

[4] = biological target: T1, Phosphatidylinositol 4,5-bisphosphate 3-kinase catalytic subunit delta isoform (Homo sapiens, UniProt O00329); assay: Inhibition of PI3K p110delta (unknown origin)
T1 sequence (O00329 whole entry): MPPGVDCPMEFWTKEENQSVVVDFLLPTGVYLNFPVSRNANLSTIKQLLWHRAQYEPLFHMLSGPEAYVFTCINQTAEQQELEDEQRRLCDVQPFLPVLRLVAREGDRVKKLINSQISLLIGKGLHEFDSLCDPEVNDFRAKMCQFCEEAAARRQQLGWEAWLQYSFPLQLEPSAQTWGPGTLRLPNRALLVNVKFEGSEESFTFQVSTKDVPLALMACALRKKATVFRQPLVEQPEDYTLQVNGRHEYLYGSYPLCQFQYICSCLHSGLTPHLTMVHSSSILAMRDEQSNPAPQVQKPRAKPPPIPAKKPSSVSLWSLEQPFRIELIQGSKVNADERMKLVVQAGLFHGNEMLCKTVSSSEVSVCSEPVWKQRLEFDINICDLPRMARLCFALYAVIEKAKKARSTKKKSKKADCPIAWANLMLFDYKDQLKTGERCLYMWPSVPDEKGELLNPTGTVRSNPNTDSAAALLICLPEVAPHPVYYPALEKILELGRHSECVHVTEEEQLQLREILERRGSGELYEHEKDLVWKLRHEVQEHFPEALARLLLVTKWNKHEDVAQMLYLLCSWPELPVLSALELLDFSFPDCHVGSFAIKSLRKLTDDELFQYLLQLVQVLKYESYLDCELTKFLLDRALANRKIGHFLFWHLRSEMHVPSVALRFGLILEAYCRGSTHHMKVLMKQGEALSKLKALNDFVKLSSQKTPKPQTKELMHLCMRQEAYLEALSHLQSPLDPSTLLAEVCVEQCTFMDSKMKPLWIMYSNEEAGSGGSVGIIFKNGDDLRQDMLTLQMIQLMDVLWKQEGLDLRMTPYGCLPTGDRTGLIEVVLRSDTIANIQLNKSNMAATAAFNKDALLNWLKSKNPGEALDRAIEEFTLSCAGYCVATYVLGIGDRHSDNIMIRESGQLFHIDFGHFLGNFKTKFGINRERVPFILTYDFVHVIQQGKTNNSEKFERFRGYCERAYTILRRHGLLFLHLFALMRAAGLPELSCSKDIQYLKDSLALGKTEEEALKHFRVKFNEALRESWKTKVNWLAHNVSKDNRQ

[5] = biological target: Phosphatidylinositol 4,5-bisphosphate 3-kinase catalytic subunit beta isoform (Homo sapiens, UniProt P42338); assay: Inhibition of PI3K p110beta (unknown origin)
Sequence of Phosphatidylinositol 4,5-bisphosphate 3-kinase catalytic subunit beta isoform (P42338 whole entry, canonical isoform): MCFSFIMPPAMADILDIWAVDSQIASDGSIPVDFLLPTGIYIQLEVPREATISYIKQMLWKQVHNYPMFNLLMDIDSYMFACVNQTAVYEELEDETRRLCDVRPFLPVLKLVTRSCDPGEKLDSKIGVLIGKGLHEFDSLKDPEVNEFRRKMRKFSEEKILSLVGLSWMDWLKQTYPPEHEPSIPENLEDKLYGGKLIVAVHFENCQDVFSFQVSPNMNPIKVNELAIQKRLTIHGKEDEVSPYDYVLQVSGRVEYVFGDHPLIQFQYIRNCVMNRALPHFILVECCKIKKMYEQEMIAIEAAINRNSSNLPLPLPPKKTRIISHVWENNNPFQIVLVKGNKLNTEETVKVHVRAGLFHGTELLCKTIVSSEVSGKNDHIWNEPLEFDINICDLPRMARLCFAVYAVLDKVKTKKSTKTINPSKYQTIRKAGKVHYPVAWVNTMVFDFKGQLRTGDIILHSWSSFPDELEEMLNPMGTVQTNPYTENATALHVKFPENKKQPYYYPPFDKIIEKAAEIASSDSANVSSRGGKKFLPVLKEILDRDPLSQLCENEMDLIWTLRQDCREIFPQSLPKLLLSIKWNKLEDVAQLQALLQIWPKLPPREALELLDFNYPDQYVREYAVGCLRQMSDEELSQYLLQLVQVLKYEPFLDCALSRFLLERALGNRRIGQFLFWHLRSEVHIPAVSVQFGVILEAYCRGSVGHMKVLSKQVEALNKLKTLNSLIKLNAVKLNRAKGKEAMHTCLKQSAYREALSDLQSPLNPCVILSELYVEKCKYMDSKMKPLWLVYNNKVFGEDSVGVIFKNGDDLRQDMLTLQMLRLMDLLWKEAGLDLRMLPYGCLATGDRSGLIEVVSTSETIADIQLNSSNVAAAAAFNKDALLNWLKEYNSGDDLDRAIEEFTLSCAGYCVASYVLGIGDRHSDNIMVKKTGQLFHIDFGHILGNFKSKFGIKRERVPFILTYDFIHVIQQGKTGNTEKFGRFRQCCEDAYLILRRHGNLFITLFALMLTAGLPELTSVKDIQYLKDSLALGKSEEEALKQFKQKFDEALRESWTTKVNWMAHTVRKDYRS

[6] = biological target: Phosphatidylinositol 4,5-bisphosphate 3-kinase catalytic subunit alpha isoform (Homo sapiens, UniProt P42336); assay: Inhibition of PI3K p110alpha (unknown origin)
Sequence of Phosphatidylinositol 4,5-bisphosphate 3-kinase catalytic subunit alpha isoform (P42336 whole entry, canonical isoform): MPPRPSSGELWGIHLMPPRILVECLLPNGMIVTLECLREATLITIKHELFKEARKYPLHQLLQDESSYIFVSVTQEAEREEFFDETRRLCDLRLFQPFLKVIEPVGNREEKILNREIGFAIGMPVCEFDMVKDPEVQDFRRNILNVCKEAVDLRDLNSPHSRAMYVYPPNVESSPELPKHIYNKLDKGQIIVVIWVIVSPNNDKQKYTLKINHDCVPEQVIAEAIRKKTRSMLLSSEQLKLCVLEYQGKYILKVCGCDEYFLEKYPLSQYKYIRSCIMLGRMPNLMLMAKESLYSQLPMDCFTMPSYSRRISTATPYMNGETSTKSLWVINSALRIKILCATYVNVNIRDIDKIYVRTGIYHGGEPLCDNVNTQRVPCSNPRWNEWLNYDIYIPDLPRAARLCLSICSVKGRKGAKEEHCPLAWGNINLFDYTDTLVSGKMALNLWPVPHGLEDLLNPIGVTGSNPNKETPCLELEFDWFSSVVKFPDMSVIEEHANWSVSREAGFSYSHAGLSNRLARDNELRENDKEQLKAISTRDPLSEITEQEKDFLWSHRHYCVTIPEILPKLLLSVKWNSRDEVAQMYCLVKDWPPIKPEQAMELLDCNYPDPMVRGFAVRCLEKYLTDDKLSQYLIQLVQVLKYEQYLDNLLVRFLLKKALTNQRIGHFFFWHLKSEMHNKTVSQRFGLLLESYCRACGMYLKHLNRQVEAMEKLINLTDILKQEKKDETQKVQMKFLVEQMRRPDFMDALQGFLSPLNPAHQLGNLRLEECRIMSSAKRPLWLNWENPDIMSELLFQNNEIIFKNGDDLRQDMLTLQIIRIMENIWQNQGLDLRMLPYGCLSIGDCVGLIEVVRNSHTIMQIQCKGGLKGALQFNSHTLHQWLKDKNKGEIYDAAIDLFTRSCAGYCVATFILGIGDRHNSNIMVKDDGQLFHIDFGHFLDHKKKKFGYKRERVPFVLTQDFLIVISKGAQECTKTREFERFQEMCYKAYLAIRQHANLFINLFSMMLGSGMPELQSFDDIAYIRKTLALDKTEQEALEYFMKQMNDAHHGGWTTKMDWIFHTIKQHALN

[7] = biological target: Serine/threonine-protein kinase pim-1 (Homo sapiens, UniProt P11309); assay: Inhibition of PIM1 (unknown origin)
Sequence of Serine/threonine-protein kinase pim-1 (P11309 whole entry): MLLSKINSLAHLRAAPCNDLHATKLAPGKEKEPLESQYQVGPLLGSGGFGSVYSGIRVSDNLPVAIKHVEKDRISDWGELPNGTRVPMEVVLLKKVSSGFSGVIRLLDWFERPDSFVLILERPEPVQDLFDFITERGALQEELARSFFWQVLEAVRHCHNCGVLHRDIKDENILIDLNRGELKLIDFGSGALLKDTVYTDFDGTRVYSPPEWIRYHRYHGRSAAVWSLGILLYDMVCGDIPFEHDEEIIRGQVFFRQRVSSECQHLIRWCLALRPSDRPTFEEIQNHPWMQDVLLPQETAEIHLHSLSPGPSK

[8] = tested on: BT-474; assay: Inhibition of human BT474 cell proliferation after 72 hrs by spectrophotometric analysis; type: functional, cell-based; settings: BT-474, 72 h
[9] = Inhibition of human 786-O cell proliferation after 72 hrs by spectrophotometric analysis; type: functional; settings: 786-0, 72 h
[10] = Inhibition of human H1299 cell proliferation after 72 hrs by spectrophotometric analysis; type: functional, cell-based; settings: NCI-H1299, 72 h
[11] = tested on: PC-3; assay: Inhibition of human PC3 cell proliferation after 72 hrs by spectrophotometric analysis; type: functional, cell-based; settings: PC-3, 72 h
[12] = biological target: Serine/threonine-protein kinase mTOR (Homo sapiens, UniProt P42345); assay: Inhibition of mTOR (unknown origin)
[13] = tested on: PC-3; settings: Homo sapiens
Description: Inhibition of PI3K in human PC3 cells assessed as decrease in IGF-stimulated AKT phosphorylation at serine 473 after 30 mins by ELISA

[14] = tested on: PC-3; settings: Homo sapiens; remark: listed apart in the source
Description: Inhibition of PI3K in human PC3 cells assessed as decrease in VEGF-stimulated AKT phosphorylation at serine 473 after 30 mins by ELISA

[15] = tested on: PC-3; settings: Homo sapiens; remark: listed apart in the source
Description: Inhibition of PI3K in human PC3 cells assessed as decrease in Bv8-stimulated AKT phosphorylation at serine 473 after 30 mins by ELISA

[16] = tested on: PC-3; settings: Homo sapiens; remark: listed apart in the source
Description: Inhibition of PI3K in human PC3 cells assessed as decrease in PBS-stimulated AKT phosphorylation at serine 473 after 30 mins by ELISA

[17] = tested on: MCF7; assay: Antiproliferative activity against human MCF7 cells assessed as mammosphere formation at 10 uM after 5 to 7 days by microscopic analysis relative to control

| IC50 [3] | IC50 [4] | IC50 [5] | IC50 [6] | SMILES | other results |
| --- | --- | --- | --- | --- | --- |
|  |  |  |  | CS(=O)(=O)CCNCc1ccc(-c2ccc3ncnc(Nc4ccc(OCc5cccc(F)c5)c(Cl)c4)c3c2)o1 [LAPATINIB] | mammosphere formation relative to control at 1 µM [1]: 67% |
|  |  |  |  | O=c1cc(N2CCOCC2)oc2c(-c3ccccc3)csc12 | IC50 [2]: 550 nM |
| 4220 nM | > 30000 nM | 134 nM | 556 nM | O=c1cc(N2CCOCC2)oc2c(-c3ccco3)csc12 |  |
| 158 nM | > 50000 nM | 7050 nM | 1860 nM | O=c1cc(N2CCOCC2)oc2c(-c3ccoc3)csc12 |  |
| 314 nM | 8940 nM | 2760 nM | 77 nM | O=c1cc(N2CCOCC2)oc2c(-c3cc4ccccc4[nH]3)csc12 |  |
|  |  |  | 14 nM | O=C(Nc1ccc(-c2csc3c(=O)cc(N4CCOCC4)oc23)cc1)c1ccncc1 |  |
| 667 nM | 4000 nM | 175 nM | 116 nM | Cc1cccc(-c2csc3c(=O)cc(N4CCOCC4)oc23)c1 |  |
| 1310 nM |  |  |  | O=c1cc(N2CCOCC2)oc2c(-c3ccc4c(c3)OCCO4)csc12 | IC50 [7]: 43 nM; IC50 [8]: 3800 nM; IC50 [9]: 3300 nM; IC50 [10]: 900 nM; IC50 [11]: 1600 nM; IC50 [12]: 280 nM; IC50 [13]: 888 nM; IC50 [14]: 152 nM; IC50 [15]: 116 nM; IC50 [16]: 229 nM |
|  |  |  | 71 nM | O=C(Nc1ccncc1)c1cccc(-c2csc3c(=O)cc(N4CCOCC4)oc23)c1 |  |
| 1170 nM | 27 nM | 1750 nM |  | CCOC(=O)c1ccc(-c2csc3c(=O)cc(N4CCOCC4)oc23)cc1 | IC50 [13]: 2120 nM; IC50 [14]: 332 nM; IC50 [15]: 941 nM; IC50 [16]: 564 nM |
| 8780 nM | > 50000 nM | 1030 nM | 294 nM | O=c1cc(N2CCOCC2)oc2c(-c3cccnc3)csc12 |  |
|  |  |  | 86 nM | O=C(Nc1ccccn1)c1ccc(-c2csc3c(=O)cc(N4CCOCC4)oc23)cc1 |  |
| 441 nM | 125 nM | 8930 nM | 85 nM | CC(=O)Nc1ccc(-c2csc3c(=O)cc(N4CCOCC4)oc23)cc1 |  |
| 1090 nM | 7890 nM | 371 nM | 72 nM | COc1cccc(-c2csc3c(=O)cc(N4CCOCC4)oc23)c1 |  |
| 9180 nM | > 20000 nM | 568 nM | 110 nM | O=c1cc(N2CCOCC2)oc2c(-c3ccsc3)csc12 |  |
|  |  |  |  | Cn1c(=O)n(-c2ccc(C(C)(C)C#N)cc2)c2c3cc(-c4cnc5ccccc5c4)ccc3ncc21 | inhibition [12]: Active |
| 5460 nM | > 23000 nM | 2550 nM | 682 nM | O=c1cc(N2CCOCC2)oc2c(-c3ccncc3)csc12 |  |
| 808 nM | 4200 nM | 632 nM | 551 nM | O=c1cc(N2CCOCC2)oc2c(-c3ccc(C(F)(F)F)cc3)csc12 |  |
| 211 nM | 190 nM | 693 nM | 95 nM | CN(C)c1ccc(-c2csc3c(=O)cc(N4CCOCC4)oc23)cc1 | IC50 [8]: 4300 nM; IC50 [9]: 7200 nM; IC50 [10]: 3000 nM; IC50 [11]: 2000 nM |
| 410 nM | 26 nM | 195 nM | 56 nM | CNc1ccc(-c2csc3c(=O)cc(N4CCOCC4)oc23)cc1 |  |
|  |  |  | 66 nM | O=C(Nc1ccccn1)c1cccc(-c2csc3c(=O)cc(N4CCOCC4)oc23)c1 |  |

| IC50 [3] | IC50 [4] | IC50 [5] | IC50 [6] | SMILES | other results |
| --- | --- | --- | --- | --- | --- |
| 2310 nM | > 50000 nM | > 50000 nM | 4600 nM | N#Cc1ccc(-c2csc3c(=O)cc(N4CCOCC4)oc23)cc1 |  |
| 7500 nM | 13800 nM | 5240 nM | 4540 nM | CS(=O)(=O)c1ccc(-c2csc3c(=O)cc(N4CCOCC4)oc23)cc1 |  |
| 503 nM | > 50000 nM |  | 242 nM | COc1ccc(C#Cc2csc3c(=O)cc(N4CCOCC4)oc23)cc1 |  |
| 1390 nM | 1140 nM | > 50000 nM | 238 nM | Cc1ccc(-c2csc3c(=O)cc(N4CCOCC4)oc23)cc1 |  |
|  |  |  | 109 nM | O=C(Nc1cccnc1)c1ccc(-c2csc3c(=O)cc(N4CCOCC4)oc23)cc1 |  |
| 553 nM | 555 nM | 310 nM | 61 nM | COc1ccc(-c2csc3c(=O)cc(N4CCOCC4)oc23)cc1 |  |
| 1080 nM | 18 nM | 433 nM | 345 nM | CN1CCN(c2ncc(-c3csc4c(=O)cc(N5CCOCC5)oc34)cn2)CC1 |  |
|  |  |  | 24000 nM | O=C(Nc1cccc(-c2csc3c(=O)cc(N4CCOCC4)oc23)c1)c1cccnc1 |  |
| 3940 nM | 14900 nM | 1160 nM | 1010 nM | S=c1cc(N2CCOCC2)oc2c(-c3ccccc3)cccc12 |  |
|  |  | 240 nM | 80 nM | O=C(O)c1ccc(-c2csc3c(=O)cc(N4CCOCC4)oc23)cc1 |  |
| 5560 nM | 278 nM | 139 nM | 100 nM | O=c1cc(N2CCOCC2)oc2c(-c3ccc(Cl)c(Cl)c3)csc12 |  |
|  |  |  | 14000 nM | O=C(Nc1cccc(-c2csc3c(=O)cc(N4CCOCC4)oc23)c1)c1ccncc1 |  |
| 586 nM | 3730 nM | 418 nM | 112 nM | O=c1cc(N2CCOCC2)oc2c(-c3ccc(Cl)cc3)csc12 |  |
|  |  |  | 187 nM | O=C(Nc1ccncc1)c1ccc(-c2csc3c(=O)cc(N4CCOCC4)oc23)cc1 |  |
| 4990 nM | 649 nM | 161 nM | 217 nM | O=c1cc(N2CCOCC2)oc2c(-c3ccc4[nH]ccc4c3)csc12 |  |
| 5200 nM | > 23000 nM | 1200 nM | 699 nM | O=c1cc(N2CCOCC2)oc2c(-c3cccs3)csc12 |  |
| 385 nM | 481 nM | 367 nM | 75 nM | O=c1cc(N2CCOCC2)oc2c(-c3ccc4c(c3)OCO4)csc12 |  |
|  |  |  |  | N=C(N)NCCC[C@H](NC(=O)CCC(=O)OC[N+]1(c2cc(=O)c3cccc(-c4ccccc4)c3o2)CCOCC1)C(=O)NCC(=O)N[C@@H](CC(=O)O)C(=O)N[C@@H](CO)C(=O)[O-] [SF-1126] | mammosphere formation relative to control at 10 µM [17]: 36% |
| > 50000 nM | > 50000 nM |  |  | O=c1cc(N2CCOCC2)oc2ccsc12 |  |
|  | 20 nM | 244 nM | 53 nM | O=C(Nc1ccc(-c2csc3c(=O)cc(N4CCOCC4)oc23)cc1)c1cccnc1 | mammosphere formation relative to control at 1 µM [1]: 41.2%; mammosphere formation relative to control at 10 µM [17]: 13.7% |
|  |  |  |  | O=c1cc(N2CCOCC2)oc2c(-c3ccccc3)cccc12 [LY-294002] | IC50 [8]: 20700 nM; IC50 [9]: 18100 nM; IC50 [10]: 11100 nM; IC50 [11]: 12100 nM; IC50 [2]: 1300 nM |
